The source of these data is US20120202885A1, “METHODS, ASSAYS AND COMPOSITIONS FOR TREATING RETINOL-RELATED DISEASES” (ReVision Therapeutics, Inc., priority 2004, published 2012).

The structures appear in SMILES notation.

For one data set, the system named is ABCA4 null mutant mice. Put plainly: HPR given i.p. to ABCA4 null mutant mice for 28 days: serum retinol, ocular retinoids and A2E. The class given is in vivo. The procedure:
In order to explore the role of HPR in the visual cycle, the in vivo effects of HPR in mice have been examined. Thus, HPR was administered to ABCA4 null mutant mice (5-20 mg/kg, i.p. in DMSO) for periods of 28 days. Control mice received only the DMSO vehicle. At the end of the treatment period, the concentrations of retinol and HPR in serum and retinoid content in ocular tissues was measured. […] Thus, the calculated percent reduction for each of the measured retinoids, and A2E, was nearly identical (see FIG. 2).
Genetic crosses of RBP4^−/− mice with ABCA4^−/− mice was undertaken to examine the role of RBP in mediation of retinol levels in serum and ocular tissue.

The subject of a further data set is abca4 null mutant mouse. Briefly: 14-day HPR dose response on serum retinol (LC/MS of serum extract). The class given is in vivo, mice. As to conditions: DMSO, 10 or 20 mg/kg HPR, 14 days. Here is the method: (§1) Initial studies began by examining the effect of HPR on serum retinol. Animals were divided into three groups and given either DMSO, 10 mg/kg HPR, or 20 mg/kg HPR for 14 days. At the end of the study period, blood was collected from the animals, sera were prepared and an acetonitrile extract of the serum was analyzed by reverse phase LC/MS. UV-visible spectral and mass/charge analyses were performed to confirm the identity of the eluted peaks. Sample chromatograms obtained from these analyses are shown: FIG. 7a.—extract from an abca4 null mutant mouse receiving HPR vehicle, DMSO; FIG. 7b.—10 mg/kg HPR; FIG. 7c.—20 mg/kg HPR. […] For 20 mg/kg HPR, serum retinol is decreased 72%, see FIG. 8. The steady state concentrations of retinol and HPR in serum (at 20 mg/kg HPR) were determined to be 2.11 μM and 1.75 μM, respectively.

Test in data set [1]: as above
The class given is in vivo, mice. Particulars: abca4 null mutant, mouse, serum, intraperitoneal; 20 mg/kg HPR; read-out: steady state concentration of HPR in serum. The procedure: as §1

The target in a further data set is retinol-RBP-TTR complex (Homo sapiens, UniProt P02753). Briefly: High-throughput FRET assay for RBP/TTR interaction. The class given is binding. An excerpt: Reduction of serum retinol and RBP are correlated with concomitant reductions in toxic lipofuscin fluorophores. Because compounds that affect RBP-TTR interaction will directly affect fluorophore levels in the eye, a high-throughput screen for small molecules which prevent interaction of RBP with TTR was developed. This screen employs probe-labeled forms of RBP and TTR which participate in a unique fluorescence resonance energy transfer (FRET) event when complexed. Compounds which interfere with RBP-TTR interaction prevent FRET. Sample spectra taken during the course of this type of assay are shown, in FIG. 4. […] The sample is incubated at 37° C. for 30 min and then illuminated with 330 nm light. The emission spectra are shown in the range of 400-600 nm. HPR binds to RBP and prevents interaction with TTR, and here this property of HPR is utilized here to validate the ability of this screen to detect inhibition of RBP-TTR interaction. […] Additionally, the design of this assay permits discrimination between compounds which interact with RBP versus those which interact with TTR. Thus, by using two distinct excitation energies (280 nm and 330 nm, for protein and retinol, respectively) and implementing simultaneous monitoring of the retinol and TTR-probe fluorescence, the “target” of a presumptive small molecule can be easily determined.
Accordingly, HPR was employed at varied concentrations (from 0-4 μM), using the conditions specified in Example 7, to evaluate the high throughput assay.
The mechanism of action underlying this effect can be explained by the disruption of RBP-TTR interactions. In order to explore this possibility and to further validate the RBP-TTR screen, the effects of all-trans retinoic and 13-cis retinoic acid, using the conditions the conditions specified for analysis of HPR, were examined.

In data set [2] the target is interaction of TTR with RBP (Homo sapiens, UniProt P02753). Particulars: Malpeli et al., Holven et al.; cited from earlier work.
The mark [3] stands for this setting: 5-20 mg/kg, i.p. in DMSO, 28 days.

With `CC1=C(/C=C/C(C)=C/C=C/C(C)=C/C(=O)Nc2ccc(O)cc2)C(C)(C)CCC1` [HPR, N-(4-hydroxyphenyl)retinamide], in the data set on ABCA4 null mutant mice (setting [3]), the “ocular retinoids and A2E” value is “commensurate reductions in ocular retinoids and A2E”; the “serum retinol as a function of increasing serum HPR” value is given as “Profound reductions in serum retinol”. Besides, the “reduction in serum RBP-retinol” value with ABCA4 null mutant mice (administered dose 10 mg/kg) was 50-60%. The “inhibition of LRAT activity” value in the data set on ABCA4 null mutant mice (mice receiving acute and chronic doses) is “has not been observed”. Further, the “serum retinol, dose dependence” value with abca4 null mutant mouse is on record as “dose-dependent reduction in serum retinol”. In data set [1], the concentration at 14 days came to 1750 nM. The “retinol and TTR-probe fluorescence (loss of RBP-TTR complexation)” value at retinol-RBP-TTR complex (HPR 1 μM, 0.5 μM RBP + 0.5 μM Alexa430-TTR, 37° C. 30 min, 330 nm excitation) was “significantly reduced retinol and TTR-probe fluorescence”. On retinol-RBP-TTR complex (varied concentrations 0-4 μM, FIG. 5), the “inhibition of retinol-RBP-TTR complex formation” value is recorded as “dose dependent inhibition”. In addition, the “interaction of TTR with RBP” value in data set [2] is on record as “interferes with the normal interaction of TTR with RBP”.
